Measured values published in patent US8404660B2, “Method of obtaining of 4-N-furfurylcytosine and/or its derivatives, an anti-aging composition and use of 4-N-furfurylcytosine and/or its derivatives in the manufacture of anti-aging composition” (Instytut Chemii Bioorganicznej Pan, priority 2007, dated 2013).
Entries after “also recorded” stand apart in the source; their conditions may differ.

Legend:
[1] = solubility observed during purification; format: physicochemical
Method: The second step was the reaction of furfurylamine (FIG. 1 V) with 4-N-p-toluenesulfonyl-2′-deoxycytidine (FIG. 1 I). The third step was depended on creating of 4-N-furfurylcytosine (FIG. 1 III), by cleavage of N-glycosyl bond by solution of inorganic acid in water (pH of this solution was about 3).
In this reason, purify on the column was performed in warm water (40-45° C.). The column was referred by aluminium foil, because the decrease temperature of water was carried out to precipitate of the product on the gel. The purification of the product was performed two times, because acid degradation of ribose gave a lot of byproducts, obstructed purification. The main product was eluted in 0.1% warm water solution of methanol. When the temperature of solvent was higher than 45° C., the product could elute earlier. The 4-N-furfurylcytosine was crystallized in water, gave colorless crystals, which form thin needles.

GAPDH [2] = test: RT/PCR analysis of GAPDH gene expression in fibroblast cells; format: cell-based; details: fibroblast cells cultured 5 weeks with 100 μM FC; phosphoimager analysis
Method: To confirm this observation total RNA was isolated and RT/PCR was perform to analyzed total GAPDH gene expression as a result of condition of cells survival (FIG. 2B) The phosphoimager analysis was performed to determined differences in GAPDH expression in fibroblast cells. We observed that it is 72% lower in FC treated cells in comparison to the control (FIG. 2C).
(§1) Total RNA from cells was isolated using TRIZOL reagent (Invitrogen). Samples for analyses of gene expression were prepared from cultured Hela and fibroblast cells Aliquots (1×10^6 cells) were removed and homogenized in TRIZOL reagent (Invitrogen). Total RNA was then chloroform extracted and precipitated using iso-propanol and ethanol. Reverse transcription was carried out using: 2 μg RNA, random primer and RevertAid™ H Minus M-MuLV reverse transcriptase (Fermentas) according to the manufactures instructions. The resultant cDNA was amplified with primers complementary to the glyceraldehyde-3-phosphate dehydrogenase, GAPDH (G1: GGGTGGAGCCAAACGGGTC, G2: […]) PCR reaction was initiated with denaturation at 94° C. for 2 min, annealing at 55° C. for 1 min, extension at 72° C. for 30 sec, followed by 30 cycles. Equal volumes of amplified products were electrophoresed on 1 agarose gel and stained with ethidium bromide.
Differences in expression level were determined using Phosphoimager and ImageQant program.

fibroblast cells = test: cytotoxic effect of FC on fibroblast cell viability, long-term culture; format: cell-based; details: 100 μM FC, vs untreated control
Method: It was observed much less living cells and after 5 weeks they are clearly death (FIG. 2A).
(§2) HeLa and fibroblast cells are routinely maintained in this laboratory. Fibroblast cells were grown in Optimem medium supplemented with 10% fetal calf serum and antibiotics, HeLa cells were grown in RPMI 1640 supplemented with 10% fetal calf serum and antibiotics (penicillin 100 U/ml and streptomycin 100 ug/ml). All cell lines were incubated in a humidified atmosphere with 5% CO2 in air at 37° C.
There 1×10^6 cells on 6-well plates were used to study the cytotoxicity area of FC on cell growth in the presence or absence of FC.

GAPDH [3] = test: RT-PCR analysis of GAPDH gene expression in HeLa cells (internal control); format: cell-based; details: 100 μM FC, 24 hours, vs untreated control
Method: In other test, we have analyzed influence of FC on the specific gene expression. In this case it was DNMT-1. Effect of FC on DNMT-1 expression was check in HeLa cells after 24 hours (FIG. 3A).
as §2
as §1, with “Equal volumes of amplified products were electrophoresed on 1 agarose gel and stained with ethidium bromide.” left out

With O=c1nc(NCc2ccco2)cc[nH]1 [FC, 4-N-furfurylcytosine] the solubility in solvents ([1]; all solvents) was “low solubility”, the solubility in water ([1]; water, increases with temperature) was “best solubility” and the “GAPDH expression lower in FC treated cells in comparison to the control” value (GAPDH [2]) was 72%. For the same compound, the fibroblast cell viability (fibroblast cells; after 3 weeks of culture) was “decreases in cell viability”, the “fibroblast cell viability / cytotoxic effect” value (fibroblast cells; after 5 weeks of culture) was “clearly death; also recorded: cytotoxic effect” and the GAPDH expression level (GAPDH [3]) was “stable and similar”.
